In PubChem BioAssay (NCI):
Values joined by “and” are separate entries in the source; they are usually repeats but may differ in a detail not shown here. Equal entries are not always repeated.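 Each compound was tested at five concentrations against cells in 96-well plates for 48 hours. Abbreviation: GI50, concentration required for 50% inhibition of growth. TGI denotes the concentration required for complete inhibition of growth.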

Legend:
Test in all cases: NCI anticancer screen, dose series, 48 h
BT-549 breast = tested on: BT-549 breast
IGROV1 ovarian = tested on: IGROV1 ovarian
KM12 colon = tested on: KM12 colon
NCI-H522 lung = tested on: NCI-H522 lung
OVCAR-3 ovarian = tested on: OVCAR-3 ovarian
RXF 393 renal = tested on: RXF 393 renal
SF-539 CNS = tested on: SF-539 CNS
T-47D breast = tested on: T-47D breast
TK-10 renal = tested on: TK-10 renal
U251 CNS = tested on: U251 CNS

Structure (SMILES) | GI50 (BT-549 breast) | TGI (BT-549 breast) | GI50 (IGROV1 ovarian) | TGI (IGROV1 ovarian) | GI50 (KM12 colon) | TGI (KM12 colon) | GI50 (NCI-H522 lung) | TGI (NCI-H522 lung) | GI50 (OVCAR-3 ovarian) | TGI (OVCAR-3 ovarian) | GI50 (RXF 393 renal) | TGI (RXF 393 renal) | GI50 (SF-539 CNS) | TGI (SF-539 CNS) | GI50 (T-47D breast) | TGI (T-47D breast) | GI50 (TK-10 renal) | TGI (TK-10 renal) [µM] | GI50 (U251 CNS) | TGI (U251 CNS)
COc1ccc(C(=O)COc2ccc(/C=C3\COc4ccc(OC)cc4C3=O)cc2)cc1 | 16.2 µM | 35.8 µM | 26 µM | 54.7 µM | 8.72 µM | 85.8 µM | 16.7 µM | 74.5 µM | 21 µM | 62.2 µM | 21.2 µM | 47.6 µM | 25.2 µM | 65.6 µM | 19.1 µM | 96.6 µM | 19.1 µM | 48.7 | 13.4 µM | 31.2 µM
CC1(C)[C@@H](OC(N)=O)[C@H]2O[C@H]2[C@]2(C=O)[C@H]3CC[C@]4(C)[C@@H](c5ccc(=O)oc5)[C@@H](Cl)C[C@]4(O)C3=CC[C@@H]12 | 0.00501 µM | 0.0103 µM | 0.00836 µM | 0.0362 µM | 0.00806 µM | 0.0253 µM | 0.0035 µM | 0.0104 µM | 0.00487 µM | 0.00981 µM | 0.00717 µM | 0.237 µM | 0.00439 µM | 0.00833 µM | 0.00656 µM | 0.0181 µM | 0.00551 µM | 0.0123 | 0.00484 µM | 0.00952 µM
CCn1c(-c2ccc(OC(C)=O)cc2)c(C)c2cc(OC(C)=O)ccc21 | – | 88.8 µM | – | > 100 µM | – | 36.8 µM | – | 40 µM | – | 42.1 µM | – | 25.6 µM | – | 43.5 µM | – | 60.5 µM | – | 74.3 | – | 26.2 µM
CCc1nc(C(N)=O)c(Nc2ccc(N3CCC(N4CCN(C)CC4)CC3)c(OC)c2)nc1NC1CCOCC1 | 2.61 µM and 0.521 µM and 3.56 µM | 14.7 µM and > 2.84 µM and 17.3 µM | 0.876 µM and 0.279 µM and 0.79 µM | 8.09 µM and > 10 µM and 8.12 µM | 0.0933 µM and 0.0338 µM and 0.0649 µM | 12.8 µM and > 10 µM and 12 µM | 4.96 µM and 0.763 µM and 6.27 µM | 21.7 µM and > 2.52 µM and 23.9 µM | 8.01 µM and 3.69 µM and 9.27 µM | 22.9 µM and > 10 µM | 1.39 µM and 0.358 µM and 1.7 µM | 4.54 µM and 1.12 µM and 6.27 µM | 5.46 µM and 1.05 µM and 7.87 µM | 20.3 µM and > 2.27 µM and 22.1 µM | 13.2 µM and > 10 µM and 13.4 µM | 30 µM and > 10 µM and 32.7 µM | 1.75 µM and 0.23 µM and 1.35 µM | – | 5.9 µM and 1.28 µM and 7.96 µM | 19.8 µM and > 3.84 µM and 21.2 µM
COc1ccc(CC2NCCc3cc(OC)c(OC)cc32)cc1Br (centres undefined) | – | > 100 µM | – | > 100 µM | – | > 100 µM | – | > 100 µM | – | > 100 µM | – | 59.1 µM | – | > 100 µM | – | 63.1 µM | – | > 89.8 | – | > 100 µM
Clc1ccc(C=Nc2ccc3c(c2)Cc2ccccc2-3)c(Cl)c1 | – | > 100 µM | – | > 100 µM | – | > 100 µM | – | > 100 µM | – | > 100 µM | – | > 100 µM | – | > 100 µM | – | > 100 µM | – | > 100 | – | > 100 µM
CC(=O)N[C@H]1CSSC[C@@H](C(N)=O)NC(=O)[C@H](C(C)C)NC(=O)[C@H](C)NC(=O)[C@H](Cc2cnc[nH]2)NC1=O | > 100 µM | > 100 µM | > 100 µM | > 100 µM | > 100 µM | > 100 µM | > 100 µM | > 100 µM | > 100 µM | > 100 µM | > 100 µM | > 100 µM | > 100 µM | > 100 µM | > 100 µM | > 100 µM | > 100 µM | > 100 | > 100 µM | > 100 µM
